Target: T1, P2X purinoceptor 7 (Homo sapiens, UniProt Q99572)
T1 sequence (Q99572 whole entry): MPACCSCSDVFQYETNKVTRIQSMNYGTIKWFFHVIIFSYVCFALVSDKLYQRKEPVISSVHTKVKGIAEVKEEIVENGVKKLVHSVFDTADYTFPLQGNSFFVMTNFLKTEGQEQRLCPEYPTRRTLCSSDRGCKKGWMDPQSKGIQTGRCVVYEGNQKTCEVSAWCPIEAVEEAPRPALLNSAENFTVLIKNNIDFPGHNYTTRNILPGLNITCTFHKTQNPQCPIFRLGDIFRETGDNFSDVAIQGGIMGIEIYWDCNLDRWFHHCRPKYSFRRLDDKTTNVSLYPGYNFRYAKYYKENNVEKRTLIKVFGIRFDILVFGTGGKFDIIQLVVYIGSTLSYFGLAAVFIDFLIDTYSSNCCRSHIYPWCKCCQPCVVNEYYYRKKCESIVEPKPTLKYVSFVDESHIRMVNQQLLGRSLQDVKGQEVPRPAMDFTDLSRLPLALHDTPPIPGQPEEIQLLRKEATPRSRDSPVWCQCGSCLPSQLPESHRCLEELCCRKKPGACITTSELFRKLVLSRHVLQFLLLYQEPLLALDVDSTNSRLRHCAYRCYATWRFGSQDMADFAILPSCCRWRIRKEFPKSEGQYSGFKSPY
Assay: SUPPLEMENTARY: Inhibition of human P2X7 receptor assessed as inhibition of ethidium bromide accumulation. Same assay as CHEMBL1103860

Compound	IC50
COc1c(Br)cccc1N1CCN(Cc2ccc(F)cc2Cl)C(=O)C1=O	50.1 nM
CCN1[C@H](C(=O)NCc2ccc(F)c(F)c2Cl)CCS1(=O)=O	79.4 nM
Cc1cccc(C)c1CNC(=O)Cc1c(C)nn(-c2ccccc2)c1C	63.1 nM
CC(C)N1CCN(C(=O)c2cccc(Cl)c2Cl)CC1=O	126 nM
O=C(c1ccccc1C(F)(F)F)N1CCn2c(nnc2-c2ccccn2)C1	63.1 nM
Cc1ccc(-n2nc(C)c(CC(=O)NCc3ccc(F)cc3Cl)c2C)cc1	126 nM
CN1C(=O)c2ccccc2C1C(=O)NCc1ccc(F)cc1Cl (stereo not given)	316 nM
CC(C#N)N1CCN(C(=O)c2cccc(C(F)(F)F)c2Cl)CC1=O (stereo not given)	251 nM
O=C(c1cccc(F)c1F)N1CCN(c2ccc(F)cc2Cl)C(=O)C1	316 nM
Cc1c(Cl)cccc1CNC(=O)[C@H]1CCC(=O)N1C	100 nM
CN1C(=O)N(c2cncnc2)C[C@H]1C(=O)NCc1ccc(F)cc1Cl	251 nM
CC1=CC(=O)N(C2CC2)C1C(=O)NCc1ccc(Cl)cc1Cl (stereo not given)	631 nM
O=C(c1c(F)ccc(F)c1Cl)N1CCN(c2ccc(F)cc2Cl)C(=O)C1	631 nM
CC(C)(C)CN1C(=O)CC[C@@H]1C(=O)NCc1cccc(C(F)(F)F)c1Cl	158 nM
Cc1ccccc1CN1CCN(c2ccccc2C)C(=O)C1=O	501 nM
CN1CC(C(=O)NCc2cccc(C(F)(F)F)c2Cl)CC1=O (stereo not given)	63.1 nM
Cc1nn(-c2cccc(F)c2)c(C)c1CC(=O)NCc1ccc(F)cc1Cl	200 nM
CCN1C(=O)CC[C@H]1C(=O)NCc1ccc(C)cc1C	158 nM
O=C1C(=O)N(c2cccc(Cl)c2Cl)CCN1Cc1ccc(Cl)cc1	794 nM
Cc1nn(C2CCN(Cc3ccccc3)CC2)c(C)c1CC(=O)NCc1ccc(F)cc1Cl	63.1 nM
Cc1c(CC(=O)NCc2ccc(F)cc2Cl)c(C(C)C)nn1-c1ccccc1	251 nM
COc1cccc(N2CCN(Cc3ccc(F)cc3Cl)C(=O)C2=O)c1	158 nM

Compound	IC50
CCN1[C@H](C(=O)NCc2ccc(F)cc2C(F)(F)F)CCS1(=O)=O	126 nM
Cc1cccc(N2CCN(Cc3ccc(F)cc3Cl)C(=O)C2=O)c1N1CCOCC1	50.1 nM
O=C(c1ccc(F)c(F)c1Cl)N1CCN(c2ccc(F)cc2Cl)C(=O)C1	39.8 nM
CCN1C(=O)OC[C@H]1C(=O)NCc1ccc(F)cc1Cl	100 nM
CC(C)(C)c1cn2c(n1)CN(C(=O)c1cccc(C(F)(F)F)c1Cl)CC2	631 nM
CN1CCN(C(=O)c2ccc(F)cc2Cl)CC1=O	501 nM
Cn1ccnc1-c1nnc2n1CCN(C(=O)c1ccc(F)cc1Cl)C2	316 nM
Cc1ccc(C)c(N2CCN(Cc3ccc(F)cc3Cl)C(=O)C2=O)n1	200 nM
CN1C[C@@H](C(=O)NCc2ccc(C#N)cc2Cl)N(C)C1=O	31.6 nM
CN1C[C@@H](C(=O)NCc2cccc(C(F)(F)F)c2Cl)NC1=O	63.1 nM
Cc1nn(CC(F)(F)F)c(C)c1CC(=O)NCc1ccc(F)cc1Cl	316 nM
Cc1nn(CC(C)(C)O)c(C)c1CC(=O)NCc1ccc(F)cc1Cl	316 nM
O=C(c1cccc(C(F)(F)F)c1Cl)N1CCn2c(nc(C(F)(F)F)c2-c2ccccc2)C1	50.1 nM
O=C(Cc1cnn(CCN2CCCCC2)c1C(F)(F)F)NCc1ccc(F)cc1Cl	794 nM
O=C(c1cccc(C(F)(F)F)c1Cl)N1CCn2c(nnc2N2CCCCC2)C1	100 nM
Cc1cc(F)cc(C)c1N1CCN(Cc2ccc(F)c(F)c2F)C(=O)C1=O	316 nM
Cc1cc(F)cc(C)c1N1CCN(Cc2cccc(C(F)(F)F)c2Cl)C(=O)C1=O	50.1 nM
O=C1C(=O)N(c2cc(Cl)ccc2N2CCOCC2)CCN1Cc1ccc(F)cc1Cl	31.6 nM
CCN1C(=O)CC[C@H]1C(=O)NCc1c(Cl)ccc(C)c1F	794 nM
C=C(C)CN1C(=O)CC[C@H]1C(=O)NCc1ccc(F)cc1Cl	398 nM
Cc1nn(-c2ccccc2)c(C)c1CC(=O)NCc1cc(C(F)(F)F)ccc1Cl	501 nM
CN1[C@H](C(=O)NCc2ccc(F)cc2Cl)CCS1(=O)=O	126 nM

More lines, in order of falling IC50, values ahead:

IC50	Compound
31.6 nM	O=C1C(=O)N(c2ccccc2OC(F)(F)F)CCN1Cc1ccc(F)cc1Cl
31.6 nM	O=C(c1ccccc1Cl)N1CCn2c(nnc2-c2ncccc2F)C1
31.6 nM	O=C(c1ccc(F)cc1C(F)(F)F)N1CCn2c(nnc2-c2ccccn2)C1
31.6 nM	Cc1nnc2n1CCN(C(=O)c1cccc(C(F)(F)F)c1Cl)C2
25.1 nM	CCN1C(=O)CC[C@H]1C(=O)NCc1ccc(Cl)cc1C
25.1 nM	CN1C(=O)N(CCN2CCOCC2)CC1C(=O)NCc1cccc(C(F)(F)F)c1Cl (stereo not given)
25.1 nM	O=C(c1cccc(C(F)(F)F)c1Cl)N1CCn2c(nnc2N2CCC2)C1
20 nM	O=C(c1ccc(Cl)c(F)c1Cl)N1CCn2c(nnc2-c2ccncn2)C1
20 nM	CN1C(=O)NC[C@H]1C(=O)NCc1ccc(F)c(F)c1Cl
20 nM	CN(C)c1nnc2n1CCN(C(=O)c1cccc(C(F)(F)F)c1Cl)C2
15.8 nM	CCN1[C@H](C(=O)NCc2ccc(Cl)cc2Cl)CCS1(=O)=O
15.8 nM	CN1C(=O)N(c2cn(C)cn2)C[C@H]1C(=O)NCc1ccc(F)c(F)c1Cl
15.8 nM	Cc1cc(F)ccc1C(=O)N1CCn2c(nnc2-c2cnccn2)C1
15.8 nM	Cc1ccc(N2CCOCC2)cc1N1CCN(C(=O)c2cccc(C(F)(F)F)c2Cl)CC1=O
15.8 nM	Cc1c(Cl)cccc1CNC(=O)[C@@H]1CCC(=O)N1C(C)C
15.8 nM	O=C1C(=O)N(c2cc(F)ccc2N2CCOCC2)CCN1Cc1ccc(F)cc1Cl
12.6 nM	COc1ccc(I)cc1N1CCN(C(=O)c2cccc(C(F)(F)F)c2Cl)CC1=O
12.6 nM	O=C(c1cccc(C(F)(F)F)c1Cl)N1CCn2c(nnc2-c2ccncn2)C1

IC50	Compound
12.6 nM	CN1C(=O)CC[C@H]1C(=O)NCc1ccc(F)c(Cl)c1Cl
12.6 nM	Cc1c(N2CCOCC2)cccc1N1CCN(C(=O)c2cccc(C(F)(F)F)c2Cl)CC1=O
12.6 nM	O=C(c1ccc(F)cc1Cl)N1CCn2c(nnc2-c2cccc(Cl)c2)C1
10 nM	CN1C(=O)N(c2cncn2C)C[C@H]1C(=O)NCc1ccc(Cl)cc1Cl
10 nM	O=C1C(=O)N(c2cc(Br)ccc2Cl)CCN1Cc1ccc(F)cc1Cl
10 nM	O=C(NCc1ccc(F)c(F)c1Cl)[C@@H]1CCC(=O)N1C1CCC1
7.94 nM	Cc1cccc(C)c1N1CCN(Cc2ccc(F)cc2C(F)(F)F)C(=O)C1=O
6.31 nM	CN1C(=O)N(c2ncccn2)C[C@H]1C(=O)NCc1ccc(Cl)cc1Cl
6.31 nM	Cc1cccc(C)c1N1CCN(Cc2cccc(Cl)c2Cl)C(=O)C1=O
6.31 nM	CCC(CC)N1CCN(C(=O)c2cccc(C(F)(F)F)c2Cl)CC1=O
6.31 nM	Cn1cccc1-c1nnc2n1CCN(C(=O)c1cccc(C(F)(F)F)c1Cl)C2
5.01 nM	CN1C(=O)N(C2CCCC2)CC1C(=O)NCc1ccc(Cl)cc1Cl (stereo not given)
3.98 nM	O=C(c1cccc(C(F)(F)F)c1Cl)N1CCn2c(-c3ccc(F)cn3)cnc2C1
2.51 nM	CN1C[C@@H](C(=O)NCc2ccc(F)c(Cl)c2Cl)N(C)C1=O
1.58 nM	CN1C(=O)NC[C@H]1C(=O)NCc1c(Cl)cc(Cl)cc1Cl
1.26 nM	O=C(c1cccc(C(F)(F)F)c1Cl)N1CCn2c(-c3cscn3)cnc2C1
1.26 nM	O=C(NCc1cccc(C(F)(F)F)c1Cl)C1CCC(=O)N1C1CC1 (stereo not given)
0.794 nM	Cc1cc(Cl)cc(Cl)c1CNC(=O)[C@@H]1CN(C)C(=O)N1C
